pIC50: −log10 of the molar value. Like-named read-outs stand apart in the source and are kept apart here.

Type in all cases: cell-based
In experiment [1] the test system is renal carcinoma cells (786-O). Put plainly: In vitro potency (CellTiter-Glo, 96 h), 786-O. The following applies: Homo sapiens, 786-0, 96 h. The essentials: (§1)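 Growth inhibition after 96 h at 37 °C with test article, measured by luminescence; cells in RPMI 1640, 20% FBS.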
Experiment [2] has as its system acute myeloid leukemia cells (MOLM-13). As to the kind of experiment: In vitro potency (CellTiter-Glo, 96 h), MOLM-13. The following applies: Homo sapiens, MOLM-13, 96 h. The essentials: as §1
Experiment [3] concerns B-lymphocyte cancer cells (SU-DHL4). Put plainly: In vitro potency (CellTiter-Glo, 96 h), SU-DHL-4. The conditions noted are these: Homo sapiens, SU-DHL-4, 96 h. The method, boiled down:
(§2)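 IC50 (ng/mL or nmol/L) derived from CellTiter-Glo luminescence after 96 h exposure at 37 °C to serial dilutions of ADC or CPT free drug. Log-phase cells had been plated 24 h beforehand in RPMI 1640 containing 20% FBS.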

Experiment [4] relates to pancreatic cancer cells (BxPC3). Put plainly: In vitro potency (CellTiter-Glo, 96 h), BxPC3. The conditions noted are these: Homo sapiens, BXPC-3, 96 h. The method, boiled down:
as §1

In experiment [5] the test system is anaplastic large cell lymphoma cells (Karpas299). Put plainly: In vitro potency (CellTiter-Glo, 96 h), Karpas299. The conditions noted are these: Homo sapiens, KARPAS-299, 96 h. The essentials: as §1
Experiment [6] deals with anaplastic large cell lymphoma cells (DELBVR). As to the kind of experiment: In vitro potency (CellTiter-Glo, 96 h), DELBVR. The method, boiled down: as §1
The subject of experiment [7] is melanoma cells (A2058). Put plainly: In vitro potency (CellTiter-Glo, 96 h), A2058. The following applies: Homo sapiens, A2058, 96 h. The method, boiled down: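 Cells in log-phase growth are plated in RPMI 1640/20% FBS for 24 h. Serially diluted conjugates are then added, and plates are kept at 37 °C for 4 days before ATP-based luminescence gives growth inhibition.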

Experiment [8] has as its system non-small-cell lung cancer cells (Calu1). Put plainly: In vitro potency (CellTiter-Glo, 96 h), Calu1. The following applies: Homo sapiens, Calu-1, 96 h. Here is the method:
(§3) In vitro potency was assessed on multiple cancer cell lines. All cell lines were authenticated by STR profiling at IDEXX Bioresearch and cultured for no more than 2 months after resuscitation. Cells cultured in log-phase growth were seeded for 24 hours in 96-well plates containing […] RPMI 1640 supplemented with 20% FBS. Serial dilutions of antibody-drug conjugates in cell culture media were prepared at 4× working concentrations, and 50 μL of each dilution was added to the 96-well plates. Following addition of test articles, cells were incubated with test articles for 4 days at 37 0° C. After 96 hours, growth inhibition was assessed by CellTiterGlo® (Promega, Madison, WI) and luminescence was measured on a plate reader.
In Table 7, IC50 values for ADCs are given in ng/mL. Cell viability was determined by CellTiter-Glo staining after 96 h exposure to ADC. ND=Not Determined. Ag2 is an antibody targeting a ubiquitous and readily internalizable antigen. The cancer cell lines tested are renal carcinoma cells (786-0), melanoma cells (A2058), pancreatic cancer cells (BxPC3), non-small-cell lung cancer cells (Calu1), anaplastic large cell lymphoma cells (DEL, DELBVR, Karpas299), Hodgkin's lymphoma cells (L540cy), (Ls174T), breast cancer cells (MDA-MB-231), acute myeloid leukemia cells (MOLM-13), and B-lymphocyte cancer cells (SU-DHL4).
In vitro potency was assessed on multiple cancer cell lines. All cell lines were authenticated by STR profiling at IDEXX Bioresearch and cultured for no more than 2 months after resuscitation. Cells cultured in log-phase growth were seeded for 24 hours in 96-well plates containing […] RPMI 1640 supplemented with 20% FBS. Following addition of test articles, cells were incubated with test articles for 4 days at 37 0° C. After 96 hours, growth inhibition was assessed by CellTiterGlo® (Promega, Madison, WI) and luminescence was measured on a plate reader.
Cell viability was determined by CellTiter-Glo staining after 96 h exposure to the compound. ND=Not Determined. The cancer cell lines tested are renal carcinoma cells (786-0), melanoma cells (A2058), pancreatic cancer cells (BxPC3), non-small-cell lung cancer cells (Calu1), anaplastic large cell lymphoma cells (DEL, DELBVR, Karpas299), Hodgkin's lymphoma cells (L540cy), (Ls 174T), breast cancer cells (MDA-MB-231), acute myeloid leukemia cells (MOLM-13), B-lymphocyte cancer cells (SU-DHL4), multiple myeloma cells (MM.1R), (U266), and melanoma cells (SK-MEL-5).
as §3, with “37°” for “37 0°”
In the following Tables IC50 values for ADCs and CPT free drugs are given in ng/mL and nmol/L concentrations. Cell viability was determined by CellTiter-Glo staining after 96 h exposure to ADC or CPT free drug.
Cell viability was determined by CellTiter-Glo staining after 96 h exposure to ADC. ND=Not Determined.

Experiment [9] concerns Hodgkin's lymphoma cells (L540cy). Put plainly: In vitro potency (CellTiter-Glo, 96 h), L540cy. The method, boiled down:
as §1

Experiment [10] relates to breast cancer cells (MDA-MB-231). Put plainly: In vitro potency (CellTiter-Glo, 96 h), MDA-MB-231. The conditions noted are these: Homo sapiens, MDA-MB-231, 96 h. The method, boiled down:
as §1

Experiment [11] relates to Ls174T cells. Put plainly: In vitro potency (CellTiter-Glo, 96 h), Ls174T. The following applies: Homo sapiens, LS174T; CPT free drugs, Table 24; CellTiter-Glo after 96 h exposure; read-out: IC50 (nmol/L) Ls174T. The method, boiled down:
as §1

Experiment [12] concerns anaplastic large cell lymphoma cells (DEL). Put plainly: In vitro potency (CellTiter-Glo, 96 h), DEL. The essentials: as §2
The mark [13] stands for this setting: CPT free drugs, Table 24, CellTiter-Glo after 96 h exposure, read-out: IC50 (nmol/L) 786-O.
Setting [14] is: CPT free drugs, Table 24, CellTiter-Glo after 96 h exposure, read-out: IC50 (nmol/L) MOLM-13.
The mark [15] stands for this setting: CPT free drugs, Table 24, CellTiter-Glo after 96 h exposure, read-out: IC50 (nmol/L) SU-DHL-4.
Setting [16] is: CPT free drugs, Table 24, CellTiter-Glo after 96 h exposure, read-out: IC50 (nmol/L) BxPC3.
Where [17] appears, read: CPT free drugs, Table 24, CellTiter-Glo after 96 h exposure, read-out: IC50 (nmol/L) Karpas299.
Setting [18] is: CPT free drugs, Table 24, CellTiter-Glo after 96 h exposure, read-out: IC50 (nmol/L) DELBVR.
Where [19] appears, read: CPT free drugs, Table 24, CellTiter-Glo after 96 h exposure, read-out: IC50 (nmol/L) A2058.
The mark [20] stands for this setting: CPT free drugs, Table 24, CellTiter-Glo after 96 h exposure, read-out: IC50 (nmol/L) Calu1.
Setting [21] is: CPT free drugs, Table 24, CellTiter-Glo after 96 h exposure, read-out: IC50 (nmol/L) L540cy.
The mark [22] stands for this setting: CPT free drugs, Table 24, CellTiter-Glo after 96 h exposure, read-out: IC50 (nmol/L) MDAMB231.
Setting [23] is: CPT free drugs, Table 24, CellTiter-Glo after 96 h exposure, read-out: IC50 (nmol/L) DEL.

For the compound `CC[C@@]1(O)C(=O)OCc2c1cc1n(c2=O)Cc2c-1nc1cc3c(cc1c2CN)OCO3` [AMDCPT, (5S)-14-(aminomethyl)-5-ethyl-5-hydroxy-7,18,20-trioxa-11,24-diazahexacyclo[11.11.0.02,11.04,9.015,23.017,21]tetracosa-1(13),2,4(9),14,16,21,23-heptaene-6,10-dione, reference compound], the pIC50 in [1] (setting [13]) was 8.72; in [1] (camptothecin free drug, 96 h, read-out: 786-O IC50), 8.52; in experiment [2] (setting [14]), 8.37; in experiment [2] (camptothecin free drug, 96 h, read-out: MOLM-13 IC50), 7.70; in experiment [3] (setting [15]), 9.00; in experiment [3] (camptothecin free drug, 96 h, read-out: SU-DHL-4 IC50), 8.70. Moreover, the pIC50 is 8.44 in experiment [4] (setting [16]); 8.52 in experiment [4] (camptothecin free drug, 96 h, read-out: BxPC3 IC50); 8.74 in [5] (setting [17]); 8.70 in experiment [5] (camptothecin free drug, 96 h, read-out: Karpas299 IC50); 9.10 in experiment [6] (setting [18]); 9.00 in [6] (camptothecin free drug, read-out: DELBVR IC50). The pIC50 in experiment [7] (setting [19]) was 9.15; in experiment [7] (camptothecin free drug, 96 h, read-out: A2058 IC50), 8.52; in experiment [8] (setting [20]), 7.84; in experiment [8] (camptothecin free drug, 96 h, read-out: Calu1 IC50) it was 7.28; in [9] (setting [21]), 9.00; in experiment [9] (camptothecin free drug, read-out: L540cy IC50), 9.00. The pIC50 in experiment [10] (setting [22]) is 8.85; in experiment [10] (camptothecin free drug, 96 h, read-out: MDAMB231 IC50), 7.68; in [11], 9.00; in [12] (setting [23]), 9.40; in experiment [12] (camptothecin free drug, read-out: DEL IC50), 9.00.
`CC[C@@]1(O)C(=O)OCc2c1cc1n(c2=O)Cc2c-1nc1ccc(C)cc1c2CN` [Compound 2a]: the pIC50 in experiment [1] (setting [13]) is 8.15; in [2] (setting [14]) it was 7.54; in [3] (setting [15]), 8.40; in experiment [4] (setting [16]), 7.70; in [5] (setting [17]), 8.05; in [6] (setting [18]) it was 8.52. Besides, the pIC50 is 8.52 in [7] (setting [19]); 7.38 in experiment [8] (setting [20]); 8.40 in experiment [9] (setting [21]); 8.30 in [10] (setting [22]); 8.41 in experiment [11]; 9.00 in [12] (setting [23]).
For the compound `CC[C@@]1(O)C(=O)OCc2c1cc1n(c2=O)Cc2c-1nc1cc(C)c(F)cc1c2CN` [Compound 2aa], the pIC50 is 6.58 in experiment [1] (setting [13]); below 6.00 in [2] (setting [14]); 6.64 in experiment [3] (setting [15]); below 6.00 in experiment [4] (setting [16]); 6.42 in experiment [5] (setting [17]); 7.06 in experiment [6] (setting [18]). The pIC50 in experiment [7] (setting [19]) was 6.89; in experiment [8] (setting [20]) it was below 6.00; in experiment [9] (setting [21]), below 6.00; in experiment [10] (setting [22]), below 6.00; in experiment [11], 6.62; in [12] (setting [23]), 7.09.
Take `CC[C@@]1(O)C(=O)OCc2c1cc1n(c2=O)Cc2c-1nc1cc(Cl)c(C)c(F)c1c2CN` [Compound 2ab]: the pIC50 is 8.22 in experiment [1] (setting [13]); 7.28 in [2] (setting [14]); 8.40 in experiment [3] (setting [15]); 7.92 in [4] (setting [16]); 8.15 in experiment [5] (setting [17]); 8.52 in experiment [6] (setting [18]). The pIC50 was 8.52 in experiment [7] (setting [19]); 7.66 in experiment [8] (setting [20]); 8.40 in experiment [9] (setting [21]); 7.52 in [10] (setting [22]); 8.22 in experiment [11]; 8.70 in experiment [12] (setting [23]).
Consider `CC[C@@]1(O)C(=O)OCc2c1cc1n(c2=O)Cc2c-1nc1cc(F)cc(F)c1c2CN` [Compound 2ac], for which the pIC50 in [1] (setting [13]) was 8.05; in [2] (setting [14]), 7.77; in [3] (setting [15]), 8.40; in [4] (setting [16]), 7.80; in experiment [5] (setting [17]), 8.10; in experiment [6] (setting [18]) it was 8.52. In addition, the pIC50 in [7] (setting [19]) was 8.52; in experiment [8] (setting [20]), 7.17; in experiment [9] (setting [21]) it was 8.40; in experiment [10] (setting [22]), 7.29; in experiment [11] it was 8.15; in [12] (setting [23]), 8.70.
For the compound `CC[C@@]1(O)C(=O)OCc2c1cc1n(c2=O)Cc2c-1nc1cc(OC)c(OC)cc1c2CN` [Compound 2ao, (19S)-10-(aminomethyl)-19-ethyl-19-hydroxy-6,7-dimethoxy-17-oxa-3,13-diazapentacyclo[11.8.0.02,11.04,9.015,20]henicosa-1(21),2,4(9),5,7,10,15 (20)-heptaene-14,18-dione], the pIC50 in [1] (setting [13]), in experiment [2] (setting [14]), in experiment [3] (setting [15]), in experiment [4] (setting [16]), in [5] (setting [17]) and in [6] (setting [18]) was below 6.00 in each case. In addition, the pIC50 is below 6.00 in [7] (setting [19]); below 6.00 in [8] (setting [20]); below 6.00 in [9] (setting [21]); below 6.00 in experiment [10] (setting [22]); below 6.00 in experiment [11]; 6.03 in experiment [12] (setting [23]).
As to `CC[C@@]1(O)C(=O)OCc2c1cc1n(c2=O)Cc2c-1nc1ccc(F)cc1c2CN` [Compound 2b], the pIC50 is 7.57 in [1] (setting [13]); 7.72 in [2] (setting [14]); 7.89 in experiment [3] (setting [15]); 7.24 in experiment [4] (setting [16]); 7.74 in experiment [5] (setting [17]); 8.24 in [6] (setting [18]). The pIC50 in [7] (setting [19]) was 8.10; in experiment [8] (setting [20]), 7.12; in experiment [9] (setting [21]), 8.22; in [10] (setting [22]) it was 7.77; in experiment [11], 7.85; in experiment [12] (setting [23]), 8.40.

The values are drawn from patent US20240207427A1, “SELECTIVE DRUG RELEASE FROM INTERNALIZED CONJUGATES OF BIOLOGICALLY ACTIVE COMPOUNDS” (priority 2021, published 2024).
